# Reference: patent publication US9079876B2, “Imidazole derivatives and preparation method and use thereof” (Beijing Orbiepharm Co., Ltd., priority 2010, dated 2015)
# Experiments:
# [1] = molecular target: T1, cyclooxygenase-1 (COX-1 enzyme) (Homo sapiens, UniProt P23219); experiment: Human whole blood in vitro activity assay, COX-1 (TXB2 by EIA); assay type: cell-based; conditions: read-out: IC50 (μg/mL) COX-1 (converted)
# T1 construct: from tissue; host or cells: human whole blood without heparin (platelets) from healthy volunteers
# T1 sequence (P23219 24-599): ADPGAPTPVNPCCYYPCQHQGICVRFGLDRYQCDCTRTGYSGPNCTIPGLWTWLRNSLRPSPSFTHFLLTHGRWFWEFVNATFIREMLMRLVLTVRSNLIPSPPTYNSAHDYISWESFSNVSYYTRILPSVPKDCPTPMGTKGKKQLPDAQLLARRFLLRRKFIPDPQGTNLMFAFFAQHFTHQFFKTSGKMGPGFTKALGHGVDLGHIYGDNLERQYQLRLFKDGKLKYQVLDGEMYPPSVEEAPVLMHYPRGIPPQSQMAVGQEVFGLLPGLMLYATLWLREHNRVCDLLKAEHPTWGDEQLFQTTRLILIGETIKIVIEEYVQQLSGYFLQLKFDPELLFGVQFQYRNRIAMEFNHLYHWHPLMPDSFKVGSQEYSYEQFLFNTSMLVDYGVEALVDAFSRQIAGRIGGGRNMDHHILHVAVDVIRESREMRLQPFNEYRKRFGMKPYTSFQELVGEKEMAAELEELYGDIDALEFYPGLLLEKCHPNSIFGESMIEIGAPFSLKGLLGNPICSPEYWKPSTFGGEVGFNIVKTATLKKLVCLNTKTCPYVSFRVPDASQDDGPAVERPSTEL
# Description: (§1) Human whole blood in vitro activity study: inhibition of activity of cyclooxygenase-1 (COX-1 enzyme) and cyclooxygenase-2 (COX-2 enzyme) in human blood. […] The blood samples were divided into two parts: one was used for detecting COX-1 enzyme activity, and the other was used for detecting COX-2 enzyme activity. The compounds were dissolved in DMSO, and were prepared in advance into 2 μL solutions in respective concentrations of 500, 50, 5, 0.5, 0.05, 0.005, 0.0005 μg/mL. 200 μL whole blood without heparin was added in the tubes containing the compounds, and then incubated at 37° C. for 1 hour. The activity of COX-1 enzyme was detected by determining the amount of thromboxane B2 (TXB2) synthesized by platelet using an EIA kit. Samples tested without the compounds were negative controls. For COX-2, 200 μL whole blood with heparin was added in the tubes containing the compounds and in the tubes containing 10 μg/mL LPS. LPS control and blank control with solvent only were used respectively for determining the maximum value and the background value of the PGE2 produced therefrom. The samples were incubated at 37° C. for 24 hours, and then centrifuged to collect serum/plasma, which was stored at −80° C. for detection by an EIA kit. The EIA kit of Cayman Company was used, the amounts of TXB2 and PGE2 were determined in accordance to the manufacturer's instructions, and the activities of COX-1 and COX-2 were tested respectively.
# [2] = molecular target: T2, cyclooxygenase-2 (COX-2 enzyme) (Homo sapiens, UniProt P35354); experiment: Human whole blood in vitro activity assay, COX-2 (LPS-induced PGE2 by EIA); assay type: cell-based; conditions: for IC50: LPS, PGE2, read-out: IC50 (μg/mL) COX-2 (converted)
# T2 construct: from tissue; host or cells: heparinised human whole blood from healthy volunteers, stimulated with LPS
# T2 sequence (P35354 18-604): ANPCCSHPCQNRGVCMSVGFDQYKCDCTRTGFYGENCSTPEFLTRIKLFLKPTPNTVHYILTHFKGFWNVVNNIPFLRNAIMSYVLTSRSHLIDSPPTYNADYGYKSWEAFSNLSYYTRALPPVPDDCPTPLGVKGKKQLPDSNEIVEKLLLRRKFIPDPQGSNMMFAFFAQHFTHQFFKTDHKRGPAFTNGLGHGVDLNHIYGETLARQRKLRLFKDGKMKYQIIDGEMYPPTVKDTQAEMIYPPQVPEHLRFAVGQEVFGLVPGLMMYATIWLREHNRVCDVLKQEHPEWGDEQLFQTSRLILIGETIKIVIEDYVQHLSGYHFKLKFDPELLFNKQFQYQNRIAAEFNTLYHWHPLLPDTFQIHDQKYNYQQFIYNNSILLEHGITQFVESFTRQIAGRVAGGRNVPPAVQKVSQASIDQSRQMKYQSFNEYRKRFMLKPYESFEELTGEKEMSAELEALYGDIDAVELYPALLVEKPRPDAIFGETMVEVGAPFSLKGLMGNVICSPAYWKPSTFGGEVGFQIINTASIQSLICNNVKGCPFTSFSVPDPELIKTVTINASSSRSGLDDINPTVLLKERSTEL
# Description: as §1
# [3] = test system: mice tail suspension immobility time; experiment: Tail suspension test in mice (anti-depression model); assay type: in vivo, Male Kunming mice; conditions: 20 mg/kg intragastric, in s (unit assumed)
# Description: In Vivo Test: Tail Suspension Test in Mice (Evaluation on an Anti-Depression Model)
# Male Kunming mice, approximately 20 g, were randomized into six groups, i.e. normal group, positive drug group (fluoxetine 20 mg/kg), compound 1: group A 5 mg/kg, group B 10 mg/kg, group C 20 mg/kg, and group D 40 mg/kg.
# Single Dose Test: Mice were normally fed for 1 day and allowed to adapt to the environment. Then the mice were fasted (except water) for 16 hours, and were intragastrically administrated with a single dose of the compound. The normal group was intragastrically administrated with an equivalent amount of distilled water. 40 min after the administration, the mice were inverted and fixed to a tail suspension device, and the distance between the head and the desktop was about 30 cm. Immobility time was recorded with an analysis record system, for the latter 4 min within the 6 min recording period, and was used for statistical analysis.
# (§2) Study with Three-Day Consecutive Dosing: Mice were normally fed for 1 day and allowed to adapt to the environment. Then the mice were intragastrically administrated with the test drug for 3 consecutive days (once per day), and the normal group was intragastrically administrated with an equivalent amount of distilled water. The mice were fasted (except water) for 16 hours before the last dosing. 40 min after the last dosing, the mice were inverted and fixed to the tail suspension device, and the distance between the head and the desktop was about 30 cm. Immobility time was recorded with an analysis record system, for the latter 4 min within the 6 min recording period, and was used for statistical analysis.
# as §2, with “with Seven-Day” for “with Three-Day”, “intragastrically dosed” for “intragastrically administrated with the test drug”, “for 7” for “for 3”, “days (once/day),” for “days (once per day),”, “last administration.” for “last dosing.”, “last administration,” for “last dosing,”
# [4] = test system: mice forced swimming immobility time; experiment: Forced swimming test in mice (anti-depression model); assay type: in vivo, Male Kunming mice; conditions: 20 mg/kg intragastric, in s (unit assumed)
# Description: In Vivo Study: The Forced Swimming Test in Mice (Evaluation on Anti-Depression Model)
# Male Kunming mice, approximately 20 g, were randomized into six groups, i.e. normal group, positive drug group (fluoxetine 20 mg/kg), group A (5 mg/kg Compound 1), group B (10 mg/kg Compound 1), group C (20 mg/kg Compound 1), and group D (40 mg/kg Compound 1).
# Single Dose Test: Mice were normally fed for 1 day and allowed to adapt to the environment. Then the mice were fasted (except water) for 16 hours, and were intragastrically administrated with a single dose of the test drug, and the normal group was intragastrically administrated with an equivalent amount of distilled water. 40 min after administration, the mice were placed in forced swimming test device (swimming environment: pool diameter 12.5 cm cylinder, water temperature 25° C. and water depth 10 cm). Mice swam for six minutes, and the immobility time (i.e., the time during which the limbs were immobile, or only the feet were thrashing or paddling) was recorded with an animal behavioral record system, for the latter 4 min within the 6 min recording period, and was used for statistical analysis.
# (§3) Study with Three-Day Consecutive Dosing: Mice were normally fed for 1 day and allowed to adapt to the environment. Then the mice were intragastrically administrated with the test drug consecutively for three days (once per day). The normal group was intragastrically administrated equivalent amount of distilled water. Mice were fasted (except water) for 16 hours before the last dosing. 40 min after the last dosing, the mice were placed in forced swimming test device (swimming environment: pool diameter 12.5 cm cylinder, water temperature 25° C. and water depth 10 cm). Mice swam for six minutes, and the immobility time (i.e., the time during which the limbs were immobile, or only the feet were thrashing or paddling) was recorded with an animal behavioral record system, for the latter 4 min within the 6 min recording period, and was used for statistical analysis.
# as §3, with “Seven-Day” for “Three-Day”, “seven” for “three”
# [5] = test system: rat paw swelling induced by carrageenan; experiment: Rat paw swelling induced by carrageenan (inflammation model); assay type: in vivo, Wistar rats; conditions: 14 mg/kg intragastric
# Description: In vivo test: observation of the effect of compound 1 on rat paw swelling induced by carrageenan (inflammation model evaluation)
# 50 rats were randomized into 5 groups, with 10 animals in each group.
# The total volume prepared for each dose group was determined based on the actual weight of the animals. A corresponding volume of purified water was taken, and was added with a sample of the test compounds or of the positive control, to allow homogenous dispersion. Sodium carboxymethyl cellulose was subsequently added, to make a homogenous suspension without obvious agglomerates.
# Methods: 50 Wistar rats ([…], 167-199 g) were used in the study, with 25 males and 25 females. They were randomized into 5 groups, i.e. model group, positive control group, compound 1: low, middle and high dose groups. […] 1 hour after intragastric administration, 0.1 ml 1% carrageenan was intradermally injected in the right hind plantar paw to induce inflammation. After induction of inflammation, paw plantar volume and paw thickness were measured every another hour, consecutively for six times. Paw swelling rate (%) and inhibition rate (%) were calculated.
# Assay methods: volume of the rat right paw was determined using UGO Basile plethysmograph, and the liquid level was kept constant for in the same animal in each measurement; thickness of the right hind paw were measured at the depiction line in the central paw with a digital vernier caliper.
# The group mean and standard deviation of paw swelling rate in each group of animals were calculated, and then the following statistical analysis was performed. The test level was 0.05, and both statistical significance and biological significance were considered in the result analysis.
# Levene's Test was used for homogeneity of variance test. Single-factor analysis of variance (ANOVA) was used for statistical analysis, if no statistical significance (P>0.05) was found. Dunnett's test (parametric method) analysis was used for multiple comparison analysis, if ANOVA found statistical significance (P≦0.05).
# If there was heterogeneity of variance (P≦0.05), then the Kruskal-Wallis test was used. If the test result of Kruskal-Wallis test was statistically significant (P<0.05), then Dunnett's test (non-parametric method) was used for multiple comparison analysis.
# [6] = 3 days consecutive administration
# [7] = 7 days consecutive administration
# [8] = single dose, 40 min after administration
compound,measurement,setting,value
"COc1ccc(-c2c(Cl)ncn2-c2ccc(S(C)(=O)=O)nc2)cc1F [Compound 10, 5-(4-chloro-5-(3-fluoro-4-methoxyphenyl)-1H-imidazol-1-yl)-2-(methylsulfonyl)pyridine]",IC50,[1],185 µM
same,IC50COX-1/IC50COX-2,[2],58.8
same,IC50,[2],3.14 µM
"COc1ccc(-c2c(Cl)ncn2-c2ccc(S(C)(=O)=O)cn2)cc1 [Compound 5, 2-(4-chloro-5-(4-methoxyphenyl)-1H-imidazol-1-yl)-5-(methylsulfonyl)pyridine]",IC50,[1],0.632 µM
same,IC50COX-1/IC50COX-2,[2],4.6
same,IC50,[2],0.137 µM
"CS(=O)(=O)c1ccc(-n2cncc2-c2ccccc2)nc1 [Compound 1E, 5-(methylsulfonyl)-2-(5-phenyl-1H-imidazol-1-yl)pyridine]",IC50,[1],86.5 µM
same,IC50COX-1/IC50COX-2,[2],11.6
same,IC50,[2],7.45 µM
"CS(=O)(=O)c1ccc(-n2cnc(Cl)c2-c2ccc(F)cc2)cn1 [Compound 12, 5-(4-chloro-5-(4-fluorophenyl)-1H-imidazol-1-yl)-2-(methylsulfonyl)pyridine]",IC50,[1],209 µM
same,IC50COX-1/IC50COX-2,[2],135.9
same,IC50,[2],1.54 µM
"CS(=O)(=O)c1ccc(-n2cnc(Cl)c2-c2ccccc2)cn1 [Compound 8, 5-(4-chloro-5-phenyl-1H-imidazol-1-yl)-2-(methylsulfonyl)pyridine]",IC50,[1],> 1500 µM
same,IC50COX-1/IC50COX-2,[2],>416
same,IC50,[2],3.59 µM
"CS(=O)(=O)c1ccc(-n2cnc(Cl)c2-c2cccnc2)cn1 [Compound 11, 5-(4-chloro-5-(pyridin-3-yl)-1H-imidazol-1-yl)-2-(methylsulfonyl)pyridine]",IC50,[1],> 1490 µM
same,IC50COX-1/IC50COX-2,[2],>12.6
same,IC50,[2],118 µM
"CNCCC(Oc1ccc(C(F)(F)F)cc1)c1ccccc1 (stereo not drawn) [fluoxetine, reference compound]",tail suspension Immobility time,[3]; [6],33.95 ± 10.50
same,tail suspension Immobility time,[3]; [7],33.76 ± 10.47
same,tail suspension Immobility time,[3]; [8],43.52 ± 20.21
same,forced swimming Immobility time,[4]; [6],82.42 ± 32.07
same,forced swimming Immobility time,[4]; [7],90.94 ± 31.73
same,forced swimming Immobility time,[4]; [8],105.04 ± 37.98
"Cc1ccc(-c2cc(C(F)(F)F)nn2-c2ccc(S(N)(=O)=O)cc2)cc1 [Celecoxib, reference compound]",inhibition rate of plantar paw thickness swelling,[5]; 1 h after inflammation,30.02%
same,inhibition rate of plantar paw volume swelling,[5]; 1 h after inflammation,0.26%
same,plantar paw thickness swelling rate,[5]; 1 h after inflammation,7.69 ± 3.31%
same,plantar paw volume swelling rate,[5]; 1 h after inflammation,10.87 ± 6.32%
same,inhibition rate of plantar paw thickness swelling,[5]; 2 h after inflammation,60.28%
same,inhibition rate of plantar paw volume swelling,[5]; 2 h after inflammation,38.81%
same,plantar paw thickness swelling rate,[5]; 2 h after inflammation,6.30 ± 2.55 %
same,plantar paw volume swelling rate,[5]; 2 h after inflammation,10.71 ± 6.01 %
same,inhibition rate of plantar paw thickness swelling,[5]; 3 h after inflammation,73.09%
same,inhibition rate of plantar paw volume swelling,[5]; 3 h after inflammation,66.24%
same,plantar paw thickness swelling rate,[5]; 3 h after inflammation,4.64 ± 1.99 %
same,plantar paw volume swelling rate,[5]; 3 h after inflammation,7.16 ± 5.15 %
same,inhibition rate of plantar paw thickness swelling,[5]; 4 h after inflammation,80.52%
same,inhibition rate of plantar paw volume swelling,[5]; 4 h after inflammation,64.29%
same,plantar paw thickness swelling rate,[5]; 4 h after inflammation,3.71 ± 2.58 %
same,plantar paw volume swelling rate,[5]; 4 h after inflammation,9.68 ± 6.13 %
same,inhibition rate of plantar paw thickness swelling,[5]; 5 h after inflammation,82.31%
same,inhibition rate of plantar paw volume swelling,[5]; 5 h after inflammation,56.44%
same,plantar paw thickness swelling rate,[5]; 5 h after inflammation,3.34 ± 2.56 %
same,plantar paw volume swelling rate,[5]; 5 h after inflammation,12.22 ± 6.90 %
same,inhibition rate of plantar paw thickness swelling,[5]; 6 h after inflammation,82.40%
same,inhibition rate of plantar paw volume swelling,[5]; 6 h after inflammation,57.00%
same,plantar paw thickness swelling rate,[5]; 6 h after inflammation,2.72 ± 2.51 %
same,plantar paw volume swelling rate,[5]; 6 h after inflammation,11.91 ± 5.41 %
